We go through eleven compounds from publication PMC12472621, “Excavating Precursors from Herb Pairs Polygala tenuifolia and Acori tatarinowii: Synthesis and Anticonvulsant Activity Evaluation of 3,4,5-Trimethoxycinnamic Acid (TMCA) Piperazine Amide Derivatives” (Pharmaceuticals, 2025).

Series [1] concerns maximal electroshock (MES) induced seizures. Nature of the series: Maximal electroshock (MES) test. Type of series: in vivo, mice. The conditions noted are these: mice; for responders at 100 mg/kg / ED50: Mus musculus, ip; for responders at 100 mg/kg / MES model, protected mice/total mice, 0.5 h / MES model, protected mice/total mice, 1 h / MES model, protected mice/total mice, 2 h / MES model, protected mice/total mice, 3 h: 100 mg/kg i.p.; for ED50: 95% confidence intervals in parentheses. The source says: (§1) Male Kunming mice (23–28 g) were maintained under controlled conditions with ad libitum access to standard pellet diet and water. Test compounds were formulated immediately prior to administration in normal saline containing 0.5% Tween-80. Our experiment was authorized by the Institutional Animal Care and Use Committee of Shaanxi University of Chinese Medicine (animal ethics certificate number: SUCMDL20210309027).
The MES test carried out following the method of Swinyard. A 60 Hz current (50 mA; 0.25 s duration) was delivered via corneal electrodes using a YSD-4G electro convulsion meter (Zhenghua Instruments, Huaibei, China, SN: ZH0056232). […] Test compounds were suspended in an identical vehicle. Protection was defined as abolition of tonic hindlimb extension.
Background: The maximal electroshock test induces tonic seizures with an electrical stimulus.

Series [2] is described as follows: Acute neurotoxicity screening (rotarod test). Format: in vivo, mice. The conditions noted are these: male, Kunming, mouse, in vivo, ip, 30 min post-administration, 95% confidence intervals in parentheses. As to the method: as §1
Neurotoxicity was assessed via a rotarod test. Mice were trained to maintain balance on a rotating rod (diameter: 4 cm; 24 rpm). Trained animals received i.p. injections of test compounds or reference drugs. At 30 min post-administration, neurologic impairment was defined as failure to remain on the rod for 3 min (≥3 falls within the testing period). Data were used to calculate TD50 values.

A further series concerns scPTZ-induced seizures. Put plainly: Pentylenetetrazole (PTZ)-induced seizure test (scPTZ). The conditions noted are these: 100 mg/kg i.p., PTZ 85 mg/kg s.c., mice. Format: in vivo. As to the method:
as §1
Seizures were induced by subcutaneous (s.c.) administration of PTZ (85 mg/kg in 1% v/v Tween-80/0.9% NaCl), 30 min after compound treatment. This dose produces clonic seizures (≥5 s duration) in 97% of naive mice. Latency to seizure onset was recorded during continuous observation.

A further series relates to LDH enzyme. Nature of the series: In vitro LDH assay. Format: biochemical. Here is the method: Employing the commercial LDH enzyme (Solarbio Life Science, Beijing, China, CAS:9001-60-9, Lot. Document No. 14240222001) includes a colorimetric assay kit designed to assess the synthesized substances’ capacity to suppress the LDH enzyme, using established techniques with slight alterations. In summary, a 96-well microplate was filled with 30 μL of LDH enzyme (300 U/mL) and 70 μL of the inhibitor mixture (0.1 mM in final concentration). Following a 10 min pre-incubation process at ambient temperature, […] of NADH (0.2 mM) was introduced. Subsequently, each well received 40 μL of phosphate buffer (20 mM, pH 6.8), reaching a total volume of 250 μL, followed by a 10 min incubation of the assay plate at 28 °C. Subsequently, […] absorbance was gauged at 340 nm utilizing a SpectraMax 190 Absorbance Microplate Reader (Molecular Devices, San Jose, CA, USA). […] In the initial screening, the level of suppression by the test substances was denoted as a percentage (%). The calculation for the LDH inhibition ratio was as follows:Inhibition (%) = [(Asample − Ablank)/Acontrol] × 100%
Asample denotes the OD340 absorbance of test compound and Ablank is the OD340 absorbance for the blank. Acontrol represents the OD340 absorbance of control.

Where [3] appears, read: 0.5 h, read-out: MES model, protected mice/total mice, 0.5 h (converted).
The mark [4] stands for this setting: 1 h, read-out: MES model, protected mice/total mice, 1 h (converted).
[5] abbreviates: 2 h, read-out: MES model, protected mice/total mice, 2 h (converted).
The mark [6] stands for this setting: 3 h, read-out: MES model, protected mice/total mice, 3 h (converted).

Like-named read-outs stand apart in the source and are kept apart here.

One may read the ED50 as the midpoint of the dose-response relation. One may read the TD50 as the dose at which the toxic effect under study appears in half of the subjects. In the case of `COc1cc(/C=C/C(=O)N2CCN(CCCC(=O)N3CCN(C(c4ccc(F)cc4)c4ccc(F)cc4)CC3)CC2)cc(OC)c1OC` [A9, (E)-1-(4-(bis(4-fluorophenyl)methyl)piperazin-1-yl)-4-(4-(3-(3,4,5-trimethoxyphenyl)acryloyl)piperazin-1-yl)butan-1-one], the responders at 100 mg/kg in series [1] (setting [3]) is 100%; in series [1] (setting [4]), 75%; in series [1] (setting [5]), 50%; in series [1] (setting [6]), 0%. For the same compound, the ED50 in series [1] was found to be 37.5 mg/kg. Moreover, the TD50 at 30 min in series [2] came to 305 mg/kg. Moreover, in the series on scPTZ-induced seizures, the “SCPTZ Latent Time (100 mg/kg, s)” value is on record as 204.5 ± 12.6 s. Also, the “SCPTZ Protective Ratio (100 mg/kg)” value with scPTZ-induced seizures is 1/4.
With `COc1cc(/C=C/C(=O)N2CCN(CCCC(=O)N3CCN(c4cccc(Cl)c4Cl)CC3)CC2)cc(OC)c1OC` [A12, (E)-1-(4-(2,3-dichlorophenyl)piperazin-1-yl)-4-(4-(3-(3,4,5-trimethoxyphenyl)acryloyl)piperazin-1-yl)butan-1-one], the responders at 100 mg/kg is 100% in series [1] (setting [3]), 75% in series [1] (setting [4]), 75% in series [1] (setting [5]) and 25% in series [1] (setting [6]). Moreover, the ED50 in series [1] came out at 54.7 mg/kg. In addition, the TD50 at 30 min in series [2] was 284 mg/kg. Besides, the “LDH Inhibition Ratio (0.1 mM)” value in the series with LDH enzyme came to 41.9 ± 9.2%. Also, the “SCPTZ Latent Time (100 mg/kg, s)” value in the series on scPTZ-induced seizures stood at 161.5 ± 24.0 s. In addition, in the series on scPTZ-induced seizures, the “SCPTZ Protective Ratio (100 mg/kg)” value is 0/4.
As to `COc1cc(/C=C/C(=O)N2CCN(CCCC(=O)N3CCN(c4ccc(C(F)(F)F)cc4)CC3)CC2)cc(OC)c1OC` [A14, (E)-1-(4-(4-(trifluoromethyl)phenyl)piperazin-1-yl)-4-(4-(3-(3,4,5-trimethoxyphenyl)acryloyl)piperazin-1-yl)butan-1-one], the responders at 100 mg/kg was 100% in series [1] (setting [3]), 100% in series [1] (setting [4]), 75% in series [1] (setting [5]) and 25% in series [1] (setting [6]). Besides, the ED50 in series [1] worked out at 52.4 mg/kg. In addition, the TD50 at 30 min in series [2] was determined as 358 mg/kg. Besides, the “LDH Inhibition Ratio (0.1 mM)” value in the series on LDH enzyme turned out to be 42.6 ± 7.3%. The “SCPTZ Latent Time (100 mg/kg, s)” value with scPTZ-induced seizures was found to be 233.5 ± 18.3 s. The “SCPTZ Protective Ratio (100 mg/kg)” value in the series with scPTZ-induced seizures is listed as 2/4.
Turning to `COc1cc(/C=C/C(=O)N2CCN(C(=O)CCC(=O)N3CCN(c4cccc(Cl)c4Cl)CC3)CC2)cc(OC)c1OC` [B12, (E)-1-(4-(2,3-dichlorophenyl)piperazin-1-yl)-4-(4-(3-(3,4,5-trimethoxyphenyl)acryloyl)piperazin-1-yl)butane-1,4-dione], the responders at 100 mg/kg was 100% in series [1] (setting [3]), 75% in series [1] (setting [4]), 25% in series [1] (setting [5]) and 25% in series [1] (setting [6]). Besides, in series [1], the ED50 was found to be 60.3 mg/kg. In addition, the TD50 at 30 min in series [2] was 417 mg/kg. In addition, the “LDH Inhibition Ratio (0.1 mM)” value in the series with LDH enzyme is reported as 44.3 ± 6.5%. The “SCPTZ Latent Time (100 mg/kg, s)” value in the series on scPTZ-induced seizures was 230.3 ± 17.4 s. Also, the “SCPTZ Protective Ratio (100 mg/kg)” value with scPTZ-induced seizures is recorded as 1/4.
For `COc1cc(/C=C/C(=O)N2CCN(C(=O)CCC(=O)N3CCN(c4cccc(Cl)c4)CC3)CC2)cc(OC)c1OC` [B13, (E)-1-(4-(3-chlorophenyl)piperazin-1-yl)-4-(4-(3-(3,4,5-trimethoxyphenyl)acryloyl)piperazin-1-yl)butane-1,4-dione], the responders at 100 mg/kg in series [1] (setting [3]) was 50%; in series [1] (setting [4]), 25%; in series [1] (setting [5]) it was 0%; in series [1] (setting [6]) it was 0%.
`COc1cc(/C=C/C(=O)N2CCN(C(=O)CCC(=O)N3CCN(c4ccc(C(F)(F)F)cc4)CC3)CC2)cc(OC)c1OC` [B14, (E)-1-(4-(4-(trifluoromethyl)phenyl)piperazin-1-yl)-4-(4-(3-(3,4,5-trimethoxyphenyl)acryloyl)piperazin-1-yl)butane-1,4-dione]: the responders at 100 mg/kg in series [1] (setting [3]) was 75%; in series [1] (setting [4]) it was 75%; in series [1] (setting [5]), 50%; in series [1] (setting [6]), 0%.
Regarding `COc1ccccc1N1CCN(C(=O)CCC(=O)N2CCN(C(=O)/C=C/c3cc(OC)c(OC)c(OC)c3)CC2)CC1` [B15, (E)-1-(4-(2-methoxyphenyl)piperazin-1-yl)-4-(4-(3-(3,4,5-trimethoxyphenyl)acryloyl)piperazin-1-yl)butane-1,4-dione], the responders at 100 mg/kg was 75% in series [1] (setting [3]), 75% in series [1] (setting [4]), 25% in series [1] (setting [5]) and 0% in series [1] (setting [6]).
As for `COc1cc(/C=C/C(=O)N2CCN(C(=O)CCC(=O)N3CCN(c4ncccn4)CC3)CC2)cc(OC)c1OC` [B16, (E)-1-(4-(pyrimidin-2-yl)piperazin-1-yl)-4-(4-(3-(3,4,5-trimethoxyphenyl)acryloyl)piperazin-1-yl)butane-1,4-dione], the responders at 100 mg/kg in series [1] (setting [3]) was 75%; in series [1] (setting [4]), 50%; in series [1] (setting [5]) it was 50%; in series [1] (setting [6]) it was 0%.
For the compound `COc1cc(/C=C/C(=O)N2CCN(C(=O)CCC(=O)N3CCC(c4noc5cc(F)ccc45)CC3)CC2)cc(OC)c1OC` [B17, (E)-1-(4-(6-fluorobenzo[d]isoxazol-3-yl)piperidin-1-yl)-4-(4-(3-(3,4,5-trimethoxyphenyl)acryloyl)piperazin-1-yl)butane-1,4-dione], the responders at 100 mg/kg was 50% in series [1] (setting [3]), 50% in series [1] (setting [4]), 25% in series [1] (setting [5]) and 0% in series [1] (setting [6]).
Consider “(E)-3-(2,4,5-trimethoxyphenyl)allyl 4-oxo-4-(4-((E)-3-(3,4,5-trimethoxyphenyl)acryloyl)piperazin-1-yl)butanoate [B5]”, for which the “MES model, protected mice/total mice, 0.5 h” value in series [1] (0.5 h) is recorded as 3/4. Also, the “MES model, protected mice/total mice, 1 h” value in series [1] (1 h) is on record as 3/4. Moreover, the “MES model, protected mice/total mice, 2 h” value in series [1] (2 h) was 2/4. The “MES model, protected mice/total mice, 3 h” value in series [1] (3 h) was 0/4.
On to “(E)-3-(2,4,5-trimethoxyphenyl)allyl 4-oxo-4-(4-((E)-3-(3,4,5-trimethoxyphenyl)acryloyl)piperazin-1-yl)butanoate [B6]”, for which the “MES model, protected mice/total mice, 0.5 h” value in series [1] (0.5 h) was 2/4. In addition, the “MES model, protected mice/total mice, 1 h” value in series [1] (1 h) was 1/4. The “MES model, protected mice/total mice, 2 h” value in series [1] (2 h) is on record as 1/4. In addition, the “MES model, protected mice/total mice, 3 h” value in series [1] (3 h) was 0/4.
